From patent publication US20140275276A1, “PHARMACEUTICAL COMPOSITION OF S-KETAMINE HYDROCHLORIDE” (JANSSEN PHARMACEUTICA NV, priority 2013, published 2014)

Columns and labels:
Type in all cases: cell-based
Staphylococcus aureus = assay: Microbial challenge test / Full AET challenge test; settings: spike 10^5-10^6 CFU/ml, room temperature
Description: (§1) A challenge test was initiated to investigate whether the formulation could prevent microorganisms from proliferating. The challenge test consisted of challenging the formulation with a prescribed inoculum of microorganisms. The inoculated formulation was then stored at room temperature and at specified time intervals a sample was withdrawn to count the microorganisms in the sample.
(§2) The formulations listed in Table 3 were additionally subjected to a Full AET challenge, with results for the individual formulations are shown in Tables 5-8, below. Additionally, Table 9 below, provides results for a Full AET challenge of a reference formulation containing 0.00 mg/mL S-ketamine hydrochloride, denatonium benzoate (to mimic the taste of the S-ketamine HCl formulation(s)), and adjusted to pH 5.21 with 1N NaOH.

Pseudomonas aeruginosa = assay: Microbial challenge test / Full AET challenge test; settings: spike 10^5-10^6 CFU/ml, room temperature
Description: as §1, §2

Escherichia coli = assay: Microbial challenge test / Full AET challenge test; settings: spike 10^5-10^6 CFU/ml, room temperature
Description: as §1, §2

Aspergillus brasiliensis = assay: Microbial challenge test / Full AET challenge test; settings: spike 10^5-10^6 CFU/ml, 28 days of incubation at room temperature
Description: as §1, §2

Candida albicans = assay: Microbial challenge test / Full AET challenge test; settings: spike 10^5-10^6 CFU/ml, room temperature
Description: as §1, §2

[1] = tested on: environmental Micrococcus Luteus; assay: Full AET challenge test; settings: spike 10^5-10^6 CFU/ml, room temperature
Description: as §1, §2

[2] = tested on: environmental isolate Staphylococcus haemolyticus; assay: Microbial challenge test; settings: spike 10^5-10^6 CFU/ml, room temperature
Description: as §1

CN[C@]1(c2ccccc2Cl)CCCCC1=O.Cl [S-ketamine hydrochloride, (S)-2-(2-chlorophenyl)-2-(methylamino)cyclohexanone hydrochloride]
Antimicrobial effect in words (change of the original spike) (Staphylococcus aureus): strong antimicrobial properties
Antimicrobial effect in words (change of the original spike) (Pseudomonas aeruginosa): strong antimicrobial properties
Antimicrobial effect in words (change of the original spike) (Escherichia coli): strong antimicrobial properties
Antimicrobial effect in words (change of the original spike) (Aspergillus brasiliensis): some inhibitory activity
Antimicrobial effect in words (change of the original spike) (Candida albicans): strong antimicrobial properties
Antimicrobial effect in words (change of the original spike) [1]: strong antimicrobial properties
Antimicrobial effect in words (change of the original spike) [2]: strong antimicrobial properties
